In patent US11331327B2, “Antibacterial use of halogenated salicylanilides” (UNION therapeutics A/S, priority 2014, dated 2022):
≈ marks a conversion by molar mass, not a printed value.

Tested on: S. aureus clinical isolates and S. aureus ATCC 29213
Test: MIC assay according to CLSI criteria, Example 2, S. aureus strains
Format: cell-based, Staphylococcus aureus
Conditions: Staphylococcus aureus
Outline: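 S. aureus grown aerobically in cation-adjusted Mueller Hinton broth at 37° C. Exponential-phase cultures inoculated at about 5×10^5 cells per well, then incubated 18 hours at 37° C.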

SMILES: C=C[C@]1(C)C[C@@H](OC(=O)CS[C@@H]2C[C@H]3CC[C@@H](C2)N3C)[C@]2(C)[C@H](C)CC[C@]3(CCC(=O)[C@H]32)[C@@H](C)[C@@H]1O [Retapamulin]
- MIC (ATCC 29213 / MRSA, strain MRSA 15): 0.06 µg/mL (≈ 0.116 µM)
- MIC (ATCC 29213 / MRSA, strain MRSA 16): 0.06 µg/mL (≈ 0.116 µM)
- MIC (ATCC 29213 / MRSA, strain MRSA 17): 0.03 µg/mL (≈ 0.0579 µM)
- MIC (ATCC 29213 / MRSA, strain MRSA 18): 0.06 µg/mL (≈ 0.116 µM)
- MIC (ATCC 29213 / MRSA, strain MRSA 19): 0.03 µg/mL (≈ 0.0579 µM)
- MIC (ATCC 29213 / MRSA, strain MRSA 20): 0.06 µg/mL (≈ 0.116 µM)
- MIC (ATCC 29213 / MRSA, strain MRSA 21): 0.125 µg/mL (≈ 0.241 µM)
- MIC (ATCC 29213 / MRSA, strain MRSA 22): 0.06 µg/mL (≈ 0.116 µM)
- MIC (ATCC 29213 / MRSA, strain MRSA 23): 0.06 µg/mL (≈ 0.116 µM)
- MIC (ATCC 29213 / MRSA, strain MRSA 24): 0.06 µg/mL (≈ 0.116 µM)
- MIC (ATCC 29213 / MRSA, strain MRSA 25): 0.06 µg/mL (≈ 0.116 µM)
- MIC (ATCC 29213 / MRSA, strain MRSA 26): 0.06 µg/mL (≈ 0.116 µM)
- MIC (ATCC 29213 / MRSA, strain MRSA 27): 0.06 µg/mL (≈ 0.116 µM)
- MIC (ATCC 29213 / MRSA, strain MRSA 27b): 0.02 µg/mL (≈ 0.0386 µM)
- MIC (ATCC 29213 / MRSA, strain MRSA 28): 0.03 µg/mL (≈ 0.0579 µM)
- MIC (ATCC 29213 / MRSA, strain MRSA 29): 0.06 µg/mL (≈ 0.116 µM)
- MIC (ATCC 29213 / MRSA, strain MRSA 30): 0.03 µg/mL (≈ 0.0579 µM)
- MIC (ATCC 29213 / MRSA, strain MRSA 31): 16 µg/mL (≈ 30.9 µM)
- MIC (ATCC 29213 / MRSA, strain MRSA 32): 0.06 µg/mL (≈ 0.116 µM)
- MIC (ATCC 29213 / MRSA, strain MRSA 33): 0.06 µg/mL (≈ 0.116 µM)
- MIC (ATCC 29213 / MRSA, strain MRSA 34): 0.06 µg/mL (≈ 0.116 µM)
- MIC (ATCC 29213 / MRSA, strain MRSA 35): 0.03 µg/mL (≈ 0.0579 µM)
- MIC (ATCC 29213 / MRSA, strain MRSA 36): 0.06 µg/mL (≈ 0.116 µM)
- MIC (ATCC 29213 / MRSA, strain MRSA 37): 0.06 µg/mL (≈ 0.116 µM)
- MIC (ATCC 29213 / MRSA, strain MRSA 38): 0.06 µg/mL (≈ 0.116 µM)
- MIC (ATCC 29213 / MRSA, strain MRSA 39): 0.06 µg/mL (≈ 0.116 µM)
- MIC (ATCC 29213 / MRSA, strain MRSA 40): 0.03 µg/mL (≈ 0.0579 µM)
- MIC (ATCC 29213 / MRSA, strain MRSA 41): 0.02 µg/mL (≈ 0.0386 µM)
- MIC (ATCC 29213 / MRSA, strain MRSA 42): 0.06 µg/mL (≈ 0.116 µM)
- MIC (ATCC 29213 / MRSA, strain MRSA 43): 0.06 µg/mL (≈ 0.116 µM)
- MIC (ATCC 29213 / MRSA, strain MRSA 44): 0.02 µg/mL (≈ 0.0386 µM)
- MIC (ATCC 29213 / MRSA, strain MRSA 45): 0.02 µg/mL (≈ 0.0386 µM)
- MIC (ATCC 29213 / MRSA, strain MRSA 46): 0.02 µg/mL (≈ 0.0386 µM)
- MIC (ATCC 29213 / MRSA, strain MRSA 47): 0.02 µg/mL (≈ 0.0386 µM)
- MIC (ATCC 29213 / MRSA, strain MRSA 48): 0.02 µg/mL (≈ 0.0386 µM)
- MIC (ATCC 29213 / MRSA, strain MRSA 49): 0.02 µg/mL (≈ 0.0386 µM)
- MIC (ATCC 29213 / MRSA, strain MRSA 50): 0.02 µg/mL (≈ 0.0386 µM)
- MIC (ATCC 29213 / MRSA, strain MRSA 51): 0.03 µg/mL (≈ 0.0579 µM)
- MIC (ATCC 29213 / MRSA, strain MRSA 52): 0.02 µg/mL (≈ 0.0386 µM)
- MIC (ATCC 29213 / MRSA, strain MRSA 53): 0.03 µg/mL (≈ 0.0579 µM)
- MIC (ATCC 29213 / MRSA, strain MRSA 54): 0.03 µg/mL (≈ 0.0579 µM)
- MIC (ATCC 29213 / MRSA, strain MRSA 55): 0.02 µg/mL (≈ 0.0386 µM)
- MIC (ATCC 29213 / MRSA, strain MRSA 56): < 0.01 µg/mL
- MIC (ATCC 29213 / MRSA, strain MRSA 57): 0.02 µg/mL (≈ 0.0386 µM)
- MIC (ATCC 29213 / MRSA, strain MRSA 58): 0.02 µg/mL (≈ 0.0386 µM)
- MIC (ATCC 29213 / MRSA, strain MRSA 59): 0.02 µg/mL (≈ 0.0386 µM)
- MIC (ATCC 29213 / MRSA, strain MRSA 60): 0.02 µg/mL (≈ 0.0386 µM)
- MIC (ATCC 29213 / MRSA, strain MRSA 61): 0.02 µg/mL (≈ 0.0386 µM)
- MIC (ATCC 29213 / MRSA, strain MRSA 62): 0.02 µg/mL (≈ 0.0386 µM)
- MIC (ATCC 29213 / MRSA, strain MRSA 63): 0.02 µg/mL (≈ 0.0386 µM)
- MIC (ATCC 29213 / MRSA, strain MRSA 64): 0.02 µg/mL (≈ 0.0386 µM)
- MIC (ATCC 29213 / MRSA, strain MRSA 65): 0.02 µg/mL (≈ 0.0386 µM)
- MIC (ATCC 29213 / MRSA, strain MRSA 66): 0.02 µg/mL (≈ 0.0386 µM)
- MIC (ATCC 29213 / MRSA, strain MRSA 67): 0.02 µg/mL (≈ 0.0386 µM)
- MIC (ATCC 29213 / MRSA, strain MRSA 68): 0.02 µg/mL (≈ 0.0386 µM)
- MIC (ATCC 29213 / MRSA, strain MRSA 69): < 0.01 µg/mL
- MIC (ATCC 29213 / MRSA, strain MRSA 70): 0.02 µg/mL (≈ 0.0386 µM)
- MIC (ATCC 29213 / MRSA, strain MRSA 71): < 0.01 µg/mL
- MIC (ATCC 29213 / MRSA, strain MRSA 72): 0.03 µg/mL (≈ 0.0579 µM)
- MIC (ATCC 29213 / MRSA, strain MRSA 73): 0.03 µg/mL (≈ 0.0579 µM)
- MIC (ATCC 29213 / MRSA, strain MRSA 74): 0.03 µg/mL (≈ 0.0579 µM)
- MIC (ATCC 29213 / MRSA, strain MRSA 75): 0.03 µg/mL (≈ 0.0579 µM)
- MIC (ATCC 29213 / MRSA, strain MRSA 76): 0.03 µg/mL (≈ 0.0579 µM)
- MIC (ATCC 29213 / MRSA, strain MRSA 77): 0.03 µg/mL (≈ 0.0579 µM)
- MIC (ATCC 29213 / MRSA, strain MRSA 78): 0.03 µg/mL (≈ 0.0579 µM)
- MIC (ATCC 29213 / MRSA, strain MRSA 79): < 0.01 µg/mL
- MIC (ATCC 29213 / MRSA, strain MRSA 80): 0.02 µg/mL (≈ 0.0386 µM)
- MIC (ATCC 29213 / MRSA, strain MRSA 81): 0.03 µg/mL (≈ 0.0579 µM)
- MIC (ATCC 29213 / MRSA, strain MRSA 82): 0.03 µg/mL (≈ 0.0579 µM)
- MIC (ATCC 29213 / MRSA, strain MRSA 83): 0.03 µg/mL (≈ 0.0579 µM)
- MIC (ATCC 29213 / MRSA, strain MRSA 84): 0.03 µg/mL (≈ 0.0579 µM)
- MIC (ATCC 29213 / MRSA, strain MRSA 85): 0.03 µg/mL (≈ 0.0579 µM)
- MIC (ATCC 29213 / MRSA, strain MRSA 86): 0.03 µg/mL (≈ 0.0579 µM)
- MIC (ATCC 29213 / MRSA, strain MRSA 87): 0.02 µg/mL (≈ 0.0386 µM)
- MIC (ATCC 29213 / MRSA, strain MRSA 88): 0.03 µg/mL (≈ 0.0579 µM)
- MIC (ATCC 29213 / MRSA, strain MRSA 89): 0.02 µg/mL (≈ 0.0386 µM)
- MIC (ATCC 29213 / MRSA, strain MRSA 90): 0.06 µg/mL (≈ 0.116 µM)
- MIC (ATCC 29213 / MRSA, strain MRSA 91): 0.06 µg/mL (≈ 0.116 µM)
- MIC (ATCC 29213 / MRSA, strain MRSA 92): 0.06 µg/mL (≈ 0.116 µM)
- MIC (ATCC 29213 / MRSA, strain MRSA 93): 0.02 µg/mL (≈ 0.0386 µM)
- MIC (ATCC 29213 / MRSA, strain MRSA 94): 0.03 µg/mL (≈ 0.0579 µM)
- MIC (ATCC 29213 / MRSA, strain MRSA 95): 0.03 µg/mL (≈ 0.0579 µM)
- MIC (ATCC 29213 / MRSA, strain MRSA 96): 0.03 µg/mL (≈ 0.0579 µM)
- MIC (ATCC 29213 / MRSA, strain MRSA 97): 0.03 µg/mL (≈ 0.0579 µM)
- MIC (ATCC 29213 / MRSA, strain MRSA 98): 0.03 µg/mL (≈ 0.0579 µM)
- MIC (ATCC 29213 / MRSA, strain MRSA 99): 0.03 µg/mL (≈ 0.0579 µM)
- MIC (ATCC 29213 / MRSA, strain MRSA 100): 1 µg/mL (≈ 1.93 µM)
- MIC (ATCC 29213 / MRSA, strain MRSA 101): 0.03 µg/mL (≈ 0.0579 µM)
- MIC (ATCC 29213 / MRSA, strain MRSA 102): 0.03 µg/mL (≈ 0.0579 µM)
- MIC (ATCC 29213 / MRSA, strain MRSA 103): 0.03 µg/mL (≈ 0.0579 µM)
- MIC (ATCC 29213 / MRSA, strain MRSA 104): 0.03 µg/mL (≈ 0.0579 µM)
- MIC (ATCC 29213 / MRSA, strain MRSA 105): 0.03 µg/mL (≈ 0.0579 µM)
- MIC (ATCC 29213 / MRSA, strain MRSA 106): 0.06 µg/mL (≈ 0.116 µM)
- MIC (ATCC 29213 / MRSA, strain MRSA 107): 0.06 µg/mL (≈ 0.116 µM)
- MIC (ATCC 29213 / MRSA, strain MRSA 108): 0.03 µg/mL (≈ 0.0579 µM)
- MIC (ATCC 29213 / MRSA, strain MRSA 109): 0.03 µg/mL (≈ 0.0579 µM)
- MIC (ATCC 29213 / MRSA, strain MRSA 110): 0.03 µg/mL (≈ 0.0579 µM)
- MIC (ATCC 29213 / MRSA, strain MRSA 111): 0.03 µg/mL (≈ 0.0579 µM)
- MIC (ATCC 29213 / MRSA, strain MRSA 112): 0.03 µg/mL (≈ 0.0579 µM)
- MIC (ATCC 29213 / MRSA, strain MRSA 113): 0.03 µg/mL (≈ 0.0579 µM)
- MIC (ATCC 29213 / MSSA, strain MSSA 01): 0.03 µg/mL (≈ 0.0579 µM)
- MIC (ATCC 29213 / MSSA, strain MSSA 02): 0.03 µg/mL (≈ 0.0579 µM)
- MIC (ATCC 29213 / NEWMAN, strain Newman): 0.03 µg/mL (≈ 0.0579 µM)
